Consider three compounds from patent publication US10105357B2, “Indication of antibiotic drugs for preparation of cancer inhibition pharmaceutical composition” (LAUNX BIOMEDICAL CO., LTD., priority 2014, dated 2018).

A word on the viability: it is a read-out of living cells in per cent, often relative to untreated cells.

The test system of data set [1] is HI650 (Lung Adenocarcinoma). Nature of the data set: Cell viability analysis, lung cancer HI650. As to conditions: for viability at 10 µM: Homo sapiens. The format is cell-based, human.
Data set [2] deals with A549 (Lung Adenocarcinoma). Nature of the data set: Cell viability analysis, lung cancer A549. The class given is cell-based, human. Conditions: for viability at 10 µM: Homo sapiens, A549.
Data set [3] has as its system AGS (Gastric Adenocarcinoma). Briefly: Cell viability analysis, gastric cancer AGS. As to conditions: for viability at 10 µM: Homo sapiens. The format is cell-based, human.
Data set [4] relates to MKN-45 (Gastric Adenocarcinoma). Nature of the data set: Cell viability analysis, gastric cancer MKN-45. The format is cell-based, human. Conditions: for viability at 10 µM: Homo sapiens, MKN-45.
Data set [5] relates to HepG2 (Hepatocellular Carcinoma). Nature of the data set: Cell viability analysis, hepatic cancer HepG2. The class given is cell-based, human. As to conditions: for viability at 10 µM: Homo sapiens, HepG2.
Data set [6] deals with LoVo (Colorectal Adenocarcinoma). Nature of the data set: Cell viability analysis, colon cancer LoVo. The class given is cell-based, human. Conditions: for viability at 10 µM: Homo sapiens, LoVo.
In data set [7] the test system is A375 (Amelanotic Melanoma). Nature of the data set: Cell viability analysis, skin cancer A375. The format is cell-based, human. As to conditions: for viability at 10 µM: Homo sapiens.
Data set [8] deals with HeLa (Cervix Adenocarcinoma). Briefly: Cell viability analysis, cervical cancer HeLa. The class given is cell-based, human. Conditions: for viability at 10 µM: Homo sapiens, HeLa.
Data set [9] deals with PC3 (p53−) (Prostate Adenocarcinoma). Nature of the data set: Cell viability analysis, prostate cancer PC3. The class given is cell-based, human. Conditions: for viability at 10 µM: Homo sapiens.
Data set [10] relates to TSGH-8301 (Urinary Bladder Carcinoma). Nature of the data set: Cell viability analysis, bladder cancer TSGH-8301. Conditions: for viability at 10 µM: Homo sapiens. The format is cell-based, human.
Data set [11] relates to MCF7 (Mammary Gland, Adenocarcinoma). Nature of the data set: Cell viability analysis, breast cancer MCF7. The class given is cell-based, human. As to conditions: for viability at 10 µM: Homo sapiens.
Data set [12] deals with HL-60 (Acute Promyelocytic Leukemia). Briefly: Cell viability analysis, leukemia HL-60. The class given is cell-based, human.
Data set [13] has as its system HCT116 (p53+) (Colorectal Carcinoma).
The test system of the next data set is cancer cell lines. Briefly: Cell viability analysis (WST-1) on cancer cell lines. As to conditions: drug 10 μM, 72 hours, WST-1; Table 3. The class given is cell-based, human. (In general: Tetrazolium assays rely on reduction of a dye to a coloured formazan, in cell work by metabolically active cells.)
Data set [14] concerns Hep3B (hepatocellular carcinoma). Briefly: Cell viability analysis, hepatic cancer Hep3B. The class given is cell-based, human. Conditions: Homo sapiens, Hep3B, 72 h, read-out: The results of antibiotic drug inhibiting cancer cell lines (cell viability analysis), Hep3B.
Data set [15] concerns BCC (basal cell carcinoma). Briefly: Cell viability analysis, skin cancer BCC. The class given is cell-based, human. Conditions: Homo sapiens, 72 h, read-out: The results of antibiotic drug inhibiting cancer cell lines (cell viability analysis), BCC.
For data set [16], the system named is C-33A (Cervical carcinoma). Briefly: Cell viability analysis, cervical cancer C-33A. Conditions: Homo sapiens, C-33-A, 72 h, read-out: The results of antibiotic drug inhibiting cancer cell lines (cell viability analysis), C-33A. The class given is cell-based, human.
In a further data set the test system is T24. Nature of the data set: Cell viability analysis, bladder cancer T24. The class given is cell-based, human. Conditions: Homo sapiens, T-24, 72 h, read-out: The results of antibiotic drug inhibiting cancer cell lines (cell viability analysis), T24.
The subject of data set [17] is MDA-MB-231 (Mammary Gland, Adenocarcinoma). Nature of the data set: Cell viability analysis, breast cancer MDA-MB-231. The class given is cell-based, human. As to conditions: Homo sapiens, MDA-MB-231, 72 h, read-out: The results of antibiotic drug inhibiting cancer cell lines (cell viability analysis), MDA-MB231.
The subject of a further data set is BxPC-3. Briefly: Cell viability analysis, pancreatic cancer BxPC-3. As to conditions: Homo sapiens, BXPC-3, 72 h, read-out: The results of antibiotic drug inhibiting cancer cell lines (cell viability analysis), BxPC-3. The class given is cell-based, human.
Another data set concerns AsPC-1. Nature of the data set: Cell viability analysis, pancreatic cancer AsPC-1. Conditions: Homo sapiens, ASPC1, 72 h, read-out: The results of antibiotic drug inhibiting cancer cell lines (cell viability analysis), AsPC-1. The class given is cell-based, human.
Another data set relates to NIH: OVCAR-3. Nature of the data set: Cell viability analysis, ovarian cancer NIH: OVCAR-3. The format is cell-based, human. Conditions: Homo sapiens, OVCAR-3, 72 h, read-out: The results of antibiotic drug inhibiting cancer cell lines (cell viability analysis), NIH-OVCAR-3.
For another data set, the system named is TOV-21G. Nature of the data set: Cell viability analysis, ovarian cancer TOV-21G. Conditions: Homo sapiens, TOV21G, 72 h, read-out: The results of antibiotic drug inhibiting cancer cell lines (cell viability analysis), TOV-21G. The class given is cell-based, human.
Data set [18] concerns SAS (Tongue squamous cell carcinoma). Briefly: Cell viability analysis, tongue cancer SAS. The class given is cell-based, human. Conditions: Homo sapiens, 72 h, read-out: The results of antibiotic drug inhibiting cancer cell lines (cell viability analysis), SAS.
For another data set, the system named is U-2OS. Briefly: Cell viability analysis, osteosarcoma U-2OS. As to conditions: Homo sapiens, U2OS, 72 h, read-out: The results of antibiotic drug inhibiting cancer cell lines (cell viability analysis), U2OS. The class given is cell-based, human.
In data set [19] the test system is 786-O (Renal adenocarcinoma). Briefly: Cell viability analysis, renal cancer 786-O. The class given is cell-based, human. Conditions: Homo sapiens, 786-0, 72 h, read-out: The results of antibiotic drug inhibiting cancer cell lines (cell viability analysis), 786-O.
The mark [20] stands for this setting: drug 10 μM, 72 hours, WST-1, OD450 nm.

SMILES strings stand for the structures. Where a name gives a salt, the structure may show the parent alone. Read-outs that look alike come from different tables or passages of the source.

Turning to `CCn1cc(C(=O)O)c(=O)c2cc(F)c(N3CCNC(C)C3)c(F)c21.Cl` (centres unmarked) [Lomefloxacin HCl (Maxaquin)], the “cell viability (survival rate), H1650” value in data set [1] was found to be 56.6. For the same compound, the “cell viability (survival rate), A549” value in data set [2] came to 70.7. The “cell viability (survival rate), AGS” value in data set [3] is 77.5. For the same compound, in [4], the “cell viability (survival rate), MKN-45” value amounted to 92.7. Besides, in data set [5], the “cell viability (survival rate), HepG2” value amounted to 90.5. Further, the “cell viability (survival rate), LoVo” value in [6] is on record as 88.9. Besides, in data set [7], the “cell viability (survival rate), A375” value amounted to 87.7. Also, in [8], the “cell viability (survival rate), HeLa” value turned out to be 135.0. Further, the “cell viability (survival rate), PC3” value in data set [9] stood at 63.3. For the same compound, the “cell viability (survival rate), TSGH” value in data set [10] turned out to be 61.2. The “cell viability (survival rate), MCF7” value in [11] was found to be 83.5. In addition, the “cell viability (survival rate), HL-60” value in data set [12] was determined as 96.5. In addition, the “cell viability (survival rate), HCT116” value in data set [13] is 113.4.

Consider `Cc1cc(C(C)(C)C)cc(C)c1CC1=NCCN1` [Xylometazoline HCl], for which the “inhibition effect on different cancer cell lines” value in the data set on cancer cell lines is reported as “significant inhibition effect”. The viability at 10 µM in [1] (NCI-H1650, 72 h, H1650, repeated experiment, read-out: The results of antibiotic drug inhibiting cancer cell lines (cell viability analysis), H1650) was found to be 95.3%; in data set [1] (NCI-H1650, drug 10 μM, 72 hours, WST-1, OD450 nm, read-out: cell viability (survival rate), H1650), 33.4%; in data set [2] (72 h, repeated experiment, read-out: The results of antibiotic drug inhibiting cancer cell lines (cell viability analysis), A549), 83%; in data set [2] (drug 10 μM, 72 hours, WST-1, OD450 nm, read-out: cell viability (survival rate), A549), 74.7%; in [3] (72 h, AGS, repeated experiment, read-out: The results of antibiotic drug inhibiting cancer cell lines (cell viability analysis), AGS), 125%; in data set [3] (drug 10 μM, 72 hours, WST-1, OD450 nm, read-out: cell viability (survival rate), AGS), 52.2%. Also, the viability at 10 µM in data set [4] (72 h, repeated experiment, read-out: The results of antibiotic drug inhibiting cancer cell lines (cell viability analysis), MKN-45) was 121%; in data set [4] (drug 10 μM, 72 hours, WST-1, OD450 nm, read-out: cell viability (survival rate), MKN-45) it was 65.8%; in data set [5] (72 h, repeated experiment, read-out: The results of antibiotic drug inhibiting cancer cell lines (cell viability analysis), HepG2) it was 106%; in [5] (drug 10 μM, 72 hours, WST-1, OD450 nm, read-out: cell viability (survival rate), HepG2), 83%; in data set [14] it was 114%; in [6] (72 h, repeated experiment, read-out: The results of antibiotic drug inhibiting cancer cell lines (cell viability analysis), LoVo), 88.7%. Further, the viability at 10 µM in [6] (drug 10 μM, 72 hours, WST-1, OD450 nm, read-out: cell viability (survival rate), LoVo) was determined as 47.1%; in data set [7] (A-375, 72 h, A375, repeated experiment, read-out: The results of antibiotic drug inhibiting cancer cell lines (cell viability analysis), A375), 102%; in data set [7] (A-375, drug 10 μM, 72 hours, WST-1, OD450 nm, read-out: cell viability (survival rate), A375), 65.1%; in [15] it was 116%; in data set [8] (72 h, repeated experiment, read-out: The results of antibiotic drug inhibiting cancer cell lines (cell viability analysis), HeLa), 117%; in data set [8] (drug 10 μM, 72 hours, WST-1, OD450 nm, read-out: cell viability (survival rate), HeLa), 107%. In addition, the viability at 10 µM in data set [16] worked out at 104%; in data set [9] (72 h, PC-3, repeated experiment, read-out: The results of antibiotic drug inhibiting cancer cell lines (cell viability analysis), PC-3), 116%; in data set [9] (drug 10 μM, 72 hours, WST-1, OD450 nm, read-out: cell viability (survival rate), PC3), 54.8%; in data set [10] (72 h, TSGH-8301, repeated experiment, read-out: The results of antibiotic drug inhibiting cancer cell lines (cell viability analysis), TSGH-8301), 122%; in [10] (drug 10 μM, 72 hours, WST-1, OD450 nm, read-out: cell viability (survival rate), TSGH) it was 42.6%; in the data set on T24 it was 92.5%. Also, the viability at 10 µM in [11] (MCF7, 72 h, MCF-7, repeated experiment, read-out: The results of antibiotic drug inhibiting cancer cell lines (cell viability analysis), MCF-7) amounted to 90.1%; in data set [11] (MCF7, drug 10 μM, 72 hours, WST-1, OD450 nm, read-out: cell viability (survival rate), MCF7) it was 94.4%; in [17] it was 96.3%; with BxPC-3, 72.9%; in the data set on AsPC-1, 82.8%; with NIH: OVCAR-3, 102%. Moreover, the viability at 10 µM is 92.3% in the data set on TOV-21G; 76.4% in data set [18]; 60.2% with U-2OS; 100% in [19]; 84.9% in data set [12] (Homo sapiens, HL-60, drug 10 μM, 72 hours, WST-1, OD450 nm, read-out: cell viability (survival rate), HL-60).

On to `O=C([O-])C(O)[C@H](O)[C@@H](O)[C@H](O)[C@H](O)CO.O=C([O-])C(O)[C@H](O)[C@@H](O)[C@H](O)[C@H](O)CO.[Ca+2]` (some centres unmarked) [Calcium Gluceptate], for which the “cell viability (survival rate), H1650” value in [1] (setting [20]) was 54.25. Besides, in data set [2] (setting [20]), the “cell viability (survival rate), A549” value amounted to 24.91. Also, the “cell viability (survival rate), AGS” value in data set [3] (setting [20]) stood at 79.67. Further, the “cell viability (survival rate), MKN-45” value in [4] (setting [20]) was 74.23. The “cell viability (survival rate), HepG2” value in data set [5] (setting [20]) is reported as 76.88. For the same compound, the “cell viability (survival rate), LoVo” value in [6] (setting [20]) worked out at 55.29. Further, the “cell viability (survival rate), A375” value in [7] (setting [20]) is 36.97. In addition, the “cell viability (survival rate), HeLa” value in data set [8] (setting [20]) came to 43.93. In addition, the “cell viability (survival rate), PC3” value in data set [9] (setting [20]) came out at 37.91. Besides, in data set [10] (setting [20]), the “cell viability (survival rate), TSGH” value came out at 33.81. The “cell viability (survival rate), MCF7” value in data set [11] (setting [20]) came to 34.24. Moreover, in data set [12] (setting [20]), the “cell viability (survival rate), HL-60” value stood at 113.4525. In addition, the “cell viability (survival rate), HCT116” value in data set [13] (drug 10 μM, 72 hours, WST-1, OD450 nm, head HCT116 / HCT116(WT)) came to 74.09.
